ChEMBL document CHEMBL1142978, “Probing the anticancer activity of nucleoside analogues: a QSAR model approach using an internally consistent training set” (J Med Chem, 2007)
Where a SMILES comes first, the peptide text is derived from it.

experiment: Cytotoxicity against mouse L1210/0 cells after 48 hrs; format: cell-based; conditions: Mus musculus, L1210/0, 48 h

SMILES	IC50 [µM]
Cc1cn([C@@H]2O[C@H](CO)[C@@H](O)[C@@H]2O)c(=O)[nH]c1=O	24.4
C=C(Cl)c1cn([C@H]2C[C@H](O)[C@@H](CO)O2)c(=O)[nH]c1=O	1.66
O=C1OC(C(O)Cn2cc(C(F)(F)F)c(=O)[nH]c2=O)C(OCc2ccccc2)=C1OCc1ccccc1 (stereo not drawn)	50.1
O=C1OC(C(O)Cn2cc(F)c(=O)[nH]c2=O)C(OCc2ccccc2)=C1OCc1ccccc1 (stereo not drawn)	140
O=c1[nH]c(=O)n([C@H]2C[C@H](O)[C@@H](CO)O2)cc1[N+](=O)[O-]	0.13
CO[C@@H]1OC[C@@H](OC(C)=O)[C@@H](OC(C)=O)[C@]1(F)n1ccc(=O)[nH]c1=O	55
Nc1nc2c(nc(I)n2COCCO)c(=O)[nH]1	111
CC1=C(c2cn([C@H]3C[C@H](O)[C@@H](CO)O3)c(=O)[nH]c2=O)C(=O)c2ccccc2C1=O	68.8
Cc1ccc(S(=O)(=O)/C=C/[C@H]2O[C@@H](n3cnc4c(N)ncnc43)[C@@H](O)[C@H]2O)cc1	54
Nc1ncnc2c1ncn2[C@@H]1O[C@H](/C=C\Br)[C@H](O)[C@@H]1O	104
CC(=O)OC(C)Cn1cnc2c(Cl)nc(I)nc21 (stereo not drawn)	13
C=Cc1cn([C@H]2C[C@H](O)[C@@H](CO)O2)c(=O)[nH]c1=O	14.2
CC(=O)OCCOCn1cnc2c(S)nc(F)nc21	40
C=C(Br)[C@H]1O[C@@H](n2cnc3c(N)ncnc32)[C@@H](O)[C@H]1O	25
CC(=O)OCCOCn1cnc2c(Cl)nc(I)nc21	8.6
N#CSc1cn([C@H]2C[C@H](O)[C@@H](CO)O2)c(=O)[nH]c1=O	78.9
CC1=C(C)C(=O)C(c2cn([C@H]3C[C@H](O)[C@@H](CO)O3)c(=O)[nH]c2=O)=CC1=O	112
Cc1ccc(-c2ncnc3c2ncn3C[C@@H]2C[C@H](CO)c3ccccc32)cc1	15.4
Nc1ncnc2c1ncn2[C@@H]1O[C@H](CO)[C@H](F)[C@@H]1O	5.94
Cc1ccc(C(=O)/C=C/c2cc(=O)[nH]c(=O)n2COCCO)cc1	27.9
Nc1ccn([C@@H]2O[C@H](CO)[C@H](F)[C@@H]2O)c(=O)n1	159
COc1ccccc1C(=O)/C=C/c1cc(=O)[nH]c(=O)n1COCCO	15.2

SMILES	IC50 [µM]
COc1ccc(C(=O)/C=C/c2cc(=O)[nH]c(=O)n2COCCO)cc1	33.5
O=C(/C=C/c1cc(=O)[nH]c(=O)n1COCCO)c1ccccc1	43.3
Nc1nc(Cl)c2nnn([C@H]3CCCC[C@H]3CO)c2n1	95.5
CO[C@@H]1OC(n2cc(F)c(=O)[nH]c2=O)[C@H](OC(C)=O)[C@@H](OC(C)=O)[C@H]1F (stereo partly drawn)	34
Nc1nc(NC2CC2)c2ncn(CCOCP(=O)(O)O)c2n1	10.2
O=c1[nH]c(=O)n([C@H]2C[C@H](O)[C@@H](CO)O2)cc1/C=C/I	63.9
OC[C@@H]1CCC[C@@H]1Cn1cnc2c(Cl)ncnc21	52.5
CC(=O)OC(C)Cn1cnc2c(=S)[nH]c(N)nc21 (stereo not drawn)	128
O=c1[nH]c(=O)n([C@H]2C[C@H](O)[C@@H](CO)O2)cc1/C=N/O	15.5
CC1(C)[C@@H](Cn2nnc3c(Cl)nc(N)nc32)CC[C@@]1(C)CO	44.6
COC1=C(OC)/C(=C/C(n2cnc3c(N)ncnc32)P(=O)(O)O)OC1=O (stereo not drawn)	11.4
CC(=O)OCCOCn1cnc2c(Cl)ncnc21	163
COC1=C(OC)/C(=C/Cn2cnc3c(Cl)ncnc32)OC1=O	14
O=C1O/C(=C\Cn2cc(F)c(=O)[nH]c2=O)C(OCc2ccccc2)=C1OCc1ccccc1	5.1
O=C1O/C(=C\Cn2cc(Br)c(=O)[nH]c2=O)C(OCc2ccccc2)=C1OCc1ccccc1	7.5
O=C1C(O)=C(O)O/C1=C\Cn1cc(F)c(=O)[nH]c1=O	5.18
CC1(C)[C@@H](CO)CC[C@@]1(C)Cn1cnc2c(Cl)ncnc21	42.8
OCCOCn1cnc2c(S)nc(F)nc21	170
Nc1ncnc2c1ncn2[C@H]1C[C@@H](O)[C@@H](C=O)O1	26.6
Nc1ncnc2c1ncn2[C@@H]1O[C@H](/C=C\Cl)[C@H](O)[C@@H]1O	143
O=C1OC(=CCn2cnc3c(-n4cccc4)ncnc32)C(OCc2ccccc2)=C1OCc1ccccc1	110
CC1(C)[C@H](CCO)C[C@@H]1n1cnc2c(Cl)nc(N)nc21	105

SMILES	IC50 [µM]
CC1=C(C)C(=O)C(c2cn([C@H]3C[C@H](O)[C@@H](CO)O3)c(=O)[nH]c2=O)=C(C)C1=O	174
CC(=O)OC(C)Cn1cnc2c(Cl)nc(F)nc21 (stereo not drawn)	37
CC1NC(=O)C(F)=CN1[C@@H]1O[C@H](COP2OCCCO2)[C@@H](O)C1=O (stereo partly drawn)	0.75
O=C1NCN([C@@H]2O[C@H](COP3OCCC(O)O3)[C@@H](O)C2=O)C=C1F (stereo partly drawn)	0.84
COC1=C(OCc2ccc([N+](=O)[O-])cc2)C(=O)O/C1=C\Cn1cnc2c(Cl)ncnc21	13.6
CCCCCC(=O)O[C@@H]1[C@H](OC(=O)CCCCC)CO[C@@H](OC)[C@@]1(F)n1ccc(=O)[nH]c1=O	40
CC(=O)OCCOCn1cnc2c(=S)[nH]c(N)nc21	3.2
CC1(C)[C@@H](Cn2cnc3c(Cl)nc(N)nc32)CC[C@@]1(C)CO	50
C#C[C@H]1O[C@@H](n2cnc3c(N)ncnc32)[C@@H](O)[C@H]1O	1.2
COc1ccc(-c2ncnc3c2ncn3C[C@@H]2C[C@H](CO)c3ccccc32)cc1	17.6
O=c1[nH]c(=O)n([C@H]2C[C@H](O)[C@@H](CO)O2)cc1CO	9.18
O=Cc1cn([C@H]2C[C@H](O)[C@@H](CO)O2)c(=O)[nH]c1=O	1.07
CC(=O)OCCOCn1cnc2c(Cl)nc(Cl)nc21	39.3
Nc1nc2c(ncn2[C@@H]2O[C@H](CO)[C@H](F)[C@@H]2O)c(=O)[nH]1	17.5
Nc1nc(Cl)c2nnn(C[C@H]3CC[C@@H](CO)C3)c2n1	170
OC[C@H]1C[C@@H](Cn2cnc3c(-c4ccccc4)ncnc32)c2ccccc21	28.1
O=C1O/C(=C/Cn2cnc3ncnc(Cl)c32)C(OCc2ccccc2)=C1OCc1ccccc1	4.1
OC[C@H]1C[C@@H](Cn2cnc3c(-c4ccc(Cl)cc4)ncnc32)c2ccccc21	8.44
O=C1NCN([C@@H]2O[C@H](COP3OCCC(F)(F)O3)[C@@H](O)C2=O)C=C1F (stereo partly drawn)	0.01
O=C1OC(C(O)Cn2ccc(=O)[nH]c2=O)C(OCc2ccccc2)=C1OCc1ccccc1 (stereo not drawn)	157
Nc1ncnc2c1ncn2[C@@H]1O[C@H](/C=C\I)[C@H](O)[C@@H]1O	43
COC1=C(OC)/C(=C/C(n2cnc3c(Cl)ncnc32)P(=O)(OC)OC)OC1=O (stereo not drawn)	37.7

SMILES	IC50 [µM]
Cc1ccc(C(=O)/C=C/c2cc(O)nc(O)n2)cc1	182
O=C1O/C(=C\Cn2cc(Cl)c(=O)[nH]c2=O)C(OCc2ccccc2)=C1OCc1ccccc1	12.2
O=C1O/C(=C\Cn2cnc3c(Cl)ncnc32)C(OCc2ccccc2)=C1OCc1ccccc1	11.6
O=C1O/C(=C\Cn2cc(I)c(=O)[nH]c2=O)C(OCc2ccccc2)=C1OCc1ccccc1	7.5
O=C1O/C(=C\Cn2ccc(=O)[nH]c2=O)C(OCc2ccccc2)=C1OCc1ccccc1	12.9
O=C1O/C(=C\Cn2cc(C(F)(F)F)c(=O)[nH]c2=O)C(OCc2ccccc2)=C1OCc1ccccc1	2
CC(C)C[C@H](NC(=O)[C@@H]1CCCN1)C(=O)NCC(N)=O (H-Pro-Leu-Gly-NH2)	> 200
Nc1ncnc2c1ncn2C1OC(C(O)O)[C@H](O)[C@H]1O (single isomer, unassigned)	> 200
Nc1ncnc2c1ncn2[C@@H]1O[C@H](C=O)C(O)C1O (single isomer, unassigned)	36.6
Nc1nc2c(ncn2COCCO)c(=O)[nH]1 [ACYCLOVIR]	57.7
Nc1ncnc2c1ncn2CCOCP(=O)(O)O [ADEFOVIR]	7.45
O=c1[nH]c(=O)n([C@H]2C[C@H](O)[C@@H](CO)O2)cc1/C=C/Br [BRIVUDINE]	80.8
O=c1[nH]c(=O)n([C@H]2C[C@H](O)[C@@H](CO)O2)cc1Br [BROXURIDINE]	84.7
Nc1ccn([C@@H]2O[C@H](CO)[C@@H](O)[C@@H]2O)c(=O)n1 [CYTARABINE]	0.7
CCc1cn([C@H]2C[C@H](O)[C@@H](CO)O2)c(=O)[nH]c1=O [EDOXUDINE]	33.2
O=c1[nH]cc(F)c(=O)[nH]1 [FLUOROURACIL]	0.31
Nc1nc2c(ncn2CCOCP(=O)(O)O)c(=O)[nH]1 [GS-438]	0.57
O=c1[nH]c(=O)n([C@H]2C[C@H](O)[C@@H](CO)O2)cc1I [IDOXURIDINE]	173
Nc1nc(N)c2ncn(CCOCP(=O)(O)O)c2n1 [PMEDAP]	1.73
O=c1[nH]c(=O)n([C@H]2C[C@H](O)[C@@H](CO)O2)cc1C(F)(F)F [TRIFLURIDINE]	0.02

same assay, conditions: l1210/0

SMILES	IC50 [µM]
Nc1ncnc2c1ncn2[C@@H]1O[C@H](/C=N/O)[C@@H](O)[C@H]1O (stereo in doubt; 75)	6.47
Nc1ncnc2c1ncn2[C@@H]1O[C@H](/C=N/O)[C@@H](O)[C@H]1O (stereo in doubt; 82)	37.5
